The values that follow are results of earlier work, collected in US6500456B1 (priority 1997, dated 2002).

The conditions of this data set: at 20° C., pure nitroglycerin.

In the case of `O=[N+]([O-])OCC(CO[N+](=O)[O-])O[N+](=O)[O-]` [nitroglycerin], the Vapor pressure entry is on record as “about 0.00026 mm”.
